Assay results as given in the NIST ThermoML archive (doi:10.1021/je0502501).
± gives the expanded uncertainty stated by the source.

Test: wn = mass fraction of the nth substance listed
Details: 313 K, 101 kPa, Liquid, Vibrating tube method

With CCCCn1cc[n+](C)c1.F[P-](F)(F)(F)(F)F [1-butyl-3-methylimidazolium hexafluorophosphate] + O the mass density (w2 = 6.7e-05) was 1358.7 ± 3.6 kg/m3, the mass density (w2 = 0.0015) was 1357.6 ± 3.6 kg/m3 and the mass density (w2 = 0.0089) was 1347.3 ± 3.6 kg/m3. The mass density (w2 = 0.016) was 1335.5 ± 3.5 kg/m3.
